Experimental findings from patent US10947260B2, “Phosphinolactone derivatives and pharmaceutical uses thereof” (INSTITUT NATIONAL DE LA SANTE ET DE LA RECHERCHE MEDICALE …, priority 2016, dated 2021) are described below.

Molecules are shown by their SMILES.

The test has as its system APPSwe mice. Description: Object recognition test, APPSwe mice. The format is in vivo. To be noted: 2-month treatment. How it is done: FIG. 9: Spatial learning in pool (a-c) and object recognition (d-f) for APPSwe mice after 2-month treatment with compound 3b. Pool: acquisition profiles of WT mice treated with V and 3b (2 mg/kg) (a) or APPSwe mice (b). (c) Presence in training quadrant (T) and mean in the other quadrants (o) during trial test performed 48 h after the last training session. Friedman non-parametric ANOVA with repeated measures: Fr=21.7, p<0.001 for the group WT/V, Fr=21.8, p<0.001 for the group WT/3b at (a); Fr=13.0, p<0.05 for group APPSwe/V, Fr=12.2, p<0.05 for group APPSwe/3b at (b). […]
The apparatus consisted of four square-shaped arenas (50 cm×50 cm×50 cm in height) made of white plexiglass and placed on a platform equipped with infrared light-emitting diodes (IR). The locomotor activity of the animal and position of the nose were able to be captured by an IR-sensitive camera and analysed using Videotrack and Nosetrack software. […] Each mouse was placed in the open field and exploratory activity and nose position were recorded for 10 min. Activity was analysed in terms of number of contacts with the objects and contact time. […] Each mouse was again placed in the open field and exploratory activity recorded for 10 min. Activity was analysed in similar manner. […]

As to `CC1(C)COP(=O)(c2ccc(Cl)cc2)C(C)(C)N1` (racemic) [Compound 3c, (±)-2-(4-Chlorophenyl)-2-oxo-3,3,5,5-tetramethyl-[1,4,2]-oxazaphosphinane], the “decrease in number of contacts with objects, APPSwe animals” value (1 mg/kg/d) is “blocked”. The “deficit of novel object preference (contacts, contact time), APPSwe animals” value (session 3) is “significantly blocked or attenuated”.
